Test results from US20100041756A1, “METHOD OF MODULATING B CELL FUNCTIONING” (priority 2004, published 2010).

Tests used:
[1] = system: DBA/1 mice with established CIA; assay: Treatment of established CIA (Example 4): clinical score, paw-swelling, histology, relapse; assay type: in vivo, mouse
Description: FIG. 6 is a graphical representation of the treatment of established CIA with 3,4-DAA. DBA/1 mice were immunised with type II collagen in CFA and monitored for development of arthritis. On day 1 of arthritis, mice were injected intraperitoneally with 3,4-DAA on a daily basis. Paw thickness was measured with callipers. The clinical scoring system was as follows: 0=normal, 1=slight swelling and/or erythema, and 2=pronounced oedematous swelling. Each limb was graded, giving a maximum score of 8 per mouse. Histological assessment of arthritis was carried out on haematoxylin and eosin stained sections using a scoring system as follows: 0, normal; 1, minimal synovitis without cartilage/bone erosion; 2, synovitis with some marginal erosion but joint architecture maintained; 3, severe synovitis and erosion with loss of normal joint architecture. There were 14 mice/group (data pooled from two separate experiments). *, P<0.05 (compared to control group).
FIG. 9 is a graphical representation depicting the relapse of arthritis 4 days after cessation of therapy. Mice with established CIA (n=6) were treated with 3,4-DAA (400 mg/kg/day) from days 1 to 5 of arthritis and clinical severity of arthritis was monitored up to day 12. Arthritis is seen to relapse at around day 9.
Type II collagen was purified from bovine cartilage, as described [Williams, R. O. 2004, Methods Mol. Med. 98:207-216] and solubilized by stirring overnight at 4° C. in acetic acid (0.1M) or Tris buffer (0.05 M Tris, containing 0.2 M NaCl, pH 7.4). Tranilast was synthesised by Angiogen Pharmaceuticals Pty. Ltd. For in vivo studies Tranilast was dissolved at a maximum concentration of 10 mg/ml in 1% sodium bicarbonate by heating for 1 h at 70° C. Upon cooling, an emulsion was formed. For in vitro studies Tranilast was dissolved in dimethyl sulphoxide (DMSO). 3-Hydroxy-anthranilic acid (3-HAA) was purchased from Sigma (Poole, UK) and dissolved in PBS.
Male DBA/1 mice (8-12 weeks old) were immunized intradermally at the base of the tail with bovine type II collagen (200 μg) emulsified in complete Freund's adjuvant (CFA; Difco, West Moseley, UK). Arthritis was monitored clinically using the following scoring system: 0=normal, 1=slight swelling and/or erythema, and 2=pronounced oedematous swelling. Each limb was graded, giving a maximum score of 8 per mouse. In addition, paw-swelling was measured using calipers.
Histopathological assessment of arthritis was carried out in a blinded fashion on decalcified haematoxylin and eosin stained sections using a scoring system as follows: 0, normal; 1, minimal synovitis without cartilage/bone erosion; 2, synovitis with some marginal erosion but joint architecture maintained; 3, severe synovitis and erosion with loss of normal joint architecture. This research was approved by the local ethical review process committee and by the Home Office of Great Britain.
The ability of Tranilast to treat established CIA was tested. Mice were immunised with type II collagen in CFA. On day 1 of clinical arthritis (the day that arthritis was first observed) mice were randomly assigned to different treatment groups and given Tranilast (100 mg/kg/day, 200 mg/kg/day or 400 mg/kg/day) or vehicle alone over a 10 day period. […]
It is clearly of interest to establish what happens when treatment with Tranilast is stopped. […] Treatment was then stopped and mice were monitored for a further 7 days.

[2] = system: anti-type II collagen IgG1 and IgG2a; assay: Serum anti-collagen antibody levels in mice with established CIA (ELISA); assay type: in vivo, mouse; conditions: 10 days treatment
Description: ELISA plates (Nunc, Uxbridge, UK) were coated with 2 μg/ml of bovine CII dissolved overnight in Tris Buffer (0.05 M Tris, containing 0.2 M NaCl, pH 7.4) blocked with 2% bovine serum albumin (BSA) and then incubated with serial dilutions of test sera. A reference sample was included on each plate. Bound total IgG, IgG1 or IgG2a was detected by incubation with HRP-conjugated sheep anti-mouse IgG, IgG1 or IgG2a, followed by TMB substrate. Optical density was measured at 450 nm.

[3] = system: T cells stimulated with anti-CD3/anti-CD28; assay: Cytokine production by stimulated T cells in vitro (ELISA); assay type: cell-based, mouse
Description: FIG. 10 is a graphical representation depicting that 3,4-DAA and 3-HAA inhibit B and T cell proliferation in vitro. Purified B and T cells were stimulated for 72 h with anti-CD40 (a), or anti-CD3/anti-CD28 (b) respectively, in the presence of varying doses of 3,4-DAA, or 3-HAA.
A single cell suspension was prepared from spleen by mincing through a cell strainer, and erythrocytes were lysed using an ammonium chloride solution (Sigma, St Louis, Mo., USA). B cells were positively enriched by using anti-IgM MACS microbeads, and T cells were positively enriched using anti-CD4 MACS microbeads and the MACS system, according to the manufacturer's guidelines (Miltenyi Biotec, Bergisch Gladbach, Germany). Purity was assessed by flow cytometric analysis (B cell>90% CD19+, T cell>90% CD4+). Cells were cultured at 5×10^5 cells/ml in 200 μl complete RPMI, as above, in a flat bottom 96-well plate and cultured for 72 h. B cells were stimulated with anti-CD40 monoclonal antibody (10 μg/ml; BD), and T cells were stimulated with 5 μg/ml plate-bound anti-CD3 (BD), 5 μg/ml soluble anti-CD28 (BD). Tranilast, 3-HAA, or vehicle (DMSO) were incubated at concentrations stated with the cultures. 48 hours after stimulation, 100 μl culture medium was collected, and cells were pulsed with 1 μCi ^3H thymidine per well for 18 h. Cells were then harvested and plates assessed for incorporation. Each assay was performed on a minimum of 3 occasions. Data shown is of one representative experiment, and is expressed as mean+/−SD of triplicate in culture. IFN-γ, IL-10 and IL-5 levels was assessed in the culture medium by ELISA, as above.

[4] = 100, 200 or 400 mg/kg/day, 10 days (FIG. 6)

With `COc1ccc(/C=C/C(=O)Nc2ccccc2C(=O)O)cc1OC` [Tranilast, 2-[[3-(3,4-dimethoxyphenyl)-1-oxo-2-propenyl]amino]benzoic acid] the “day of relapse (exacerbation) of arthritis after cessation of therapy” value ([1]; 400 mg/kg/day days 1 to 5, monitored up to day 12 (FIG. 9)) was 9 days, the “arthritis severity during the treatment period” value ([1]; 400 mg/kg/day, day 1 to day 5 of arthritis (FIG. 9)) was “dramatic reduction in arthritis severity” and the clinical scores [1, 4] was “dose-dependent reduction”. For the same compound, the paw-swelling [1, 4] was “dose-dependent reduction”, the “histological severity of arthritis” value ([1]; day 10 (FIG. 6)) was “clear dose-dependent reduction” and the “levels of anti-type II collagen IgG1 and IgG2a in sera” value [2] was “no differences were observed”. The “IFN-γ production by T-cells” value ([3]; FIG. 10C) was “dose-dependently reduced”, the “IL-10 production by T-cells” value ([3]; FIG. 10D) was “dose-dependently inhibited” and the “IL-5 production by T-cells” value ([3]; FIG. 10E) was “dose-dependently inhibited”.
